Measurements taken from paper PMC9763054 (Nature, 2021).

Molecular target: human CB1 (Homo sapiens, UniProt P21554)
Assay type: cell-based

Sequence of human CB1 (P21554 whole entry): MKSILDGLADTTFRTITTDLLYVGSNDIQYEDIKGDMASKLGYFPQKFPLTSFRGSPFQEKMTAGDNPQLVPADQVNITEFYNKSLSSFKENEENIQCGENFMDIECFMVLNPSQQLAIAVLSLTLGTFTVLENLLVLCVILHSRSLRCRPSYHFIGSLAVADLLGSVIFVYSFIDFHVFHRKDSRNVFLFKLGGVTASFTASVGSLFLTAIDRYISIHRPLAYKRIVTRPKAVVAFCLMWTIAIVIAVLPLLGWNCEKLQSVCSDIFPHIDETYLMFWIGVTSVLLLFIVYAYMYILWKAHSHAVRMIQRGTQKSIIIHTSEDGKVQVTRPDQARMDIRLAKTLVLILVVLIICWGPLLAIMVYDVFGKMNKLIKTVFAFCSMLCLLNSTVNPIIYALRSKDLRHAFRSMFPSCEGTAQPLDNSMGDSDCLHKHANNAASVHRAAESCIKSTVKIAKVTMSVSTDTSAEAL

Compound: CCCCCCC(C)(C)c1ccc([C@@H]2C[C@H](O)CC[C@H]2CCCO)c(O)c1 [CP55940]
- CB1 potency measured in agonist mode: 17 nM
